Source: ChEMBL document CHEMBL5338707, “Design, synthesis and bioactivity evaluation of favorable evodiamine derivative scaffold for developing cancer therapy” (Eur J Med Chem, 2022)
The source made the active and inactive calls. The rule behind the calls is not given here.

Legend:
[1] = target: DNA topoisomerase II (Homo sapiens) (UniProt P11388+Q02880); assay: Inhibition of Topoisomerase 2 (unknown origin) at 50 to 100 uM incubated for 15 mins in the presence of ATP by electrophoretic analysis; format: protein assay; conditions: dose 50-100 µM
MGC-803 [2] = assay: Induction of apoptosis in human MGC-803 cells assessed as necrotic cells at 96 nM incubated for 24 hrs by AnnexinV-FITC/PI staining based flow cytometric analysis (reference value: 0.53%); format: functional
MGC-803 [3] = assay: Induction of apoptosis in human MGC-803 cells assessed as early apoptotic cells at 48 nM incubated for 24 hrs by AnnexinV-FITC/PI staining based flow cytometric analysis (reference value: 0.38%); format: functional
MGC-803 [4] = assay: Cell cycle arrest in human MGC-803 cells assessed as accumulation of cells at G0/G1 phase at 48 nM incubated for 24 hrs by PI staining based flow cytometric analysis (Rvb =76.60%); format: functional
MGC-803 [5] = assay: Cell cycle arrest in human MGC-803 cells assessed as accumulation of cells at S phase at 3 nM incubated for 24 hrs by PI staining based flow cytometric analysis (Rvb =7.84%); format: functional
SGC-7901 [6] = assay: Antimigratory activity against human SGC-7901 cells assessed as reduction in migration ability at 3 to 48 nM incubated for 24 hrs by transwell migration assay; format: functional, cell-based; conditions: dose 3-48 nM
SGC-7901 [7] = assay: Antimigratory activity against human SGC-7901 cells assessed as reduction in number of migrating cells at 48 nM incubated for 24 hrs by transwell migration assay relative to control; format: functional; design: scale not given: the % may be the effect or the level left
MGC-803 [8] = assay: Antimigratory activity against human MGC-803 cells assessed as reduction in number of migrating cells at 48 nM incubated for 24 hrs by transwell migration assay relative to control; format: functional; design: scale not given: the % may be the effect or the level left
[9] = Tmax in rat at 50 mg/kg, ip measured at 0.25 to 24 hrs by LC-MS analysis; format: ADME, organism-based; conditions: in vivo, time 0.25-24 hrs
[10] = Acute toxicity in Kunming mouse assessed as animal death at 300 mg/kg, ip administered for 14 days; format: organism-based; conditions: in vivo, 336 h, time 14 day
[11] = Acute toxicity in Kunming mouse assessed as effect on heart at 300 mg/kg, ip administered for 14 days by H&E staining based analysis; format: organism-based; conditions: in vivo, 336 h, time 14 day
[12] = Acute toxicity in Kunming mouse assessed as effect on liver at 300 mg/kg, ip administered for 14 days by H&E staining based analysis; format: organism-based; conditions: in vivo, 336 h, time 14 day
[13] = Acute toxicity in Kunming mouse assessed as effect on spleen at 300 mg/kg, ip administered for 14 days by H&E staining based analysis; format: organism-based; conditions: in vivo, 336 h, time 14 day
[14] = Acute toxicity in Kunming mouse assessed as effect on lung at 300 mg/kg, ip administered for 14 days by H&E staining based analysis; format: organism-based; conditions: in vivo, 336 h, time 14 day
[15] = Acute toxicity in Kunming mouse assessed as effect on kidney at 300 mg/kg, ip administered for 14 days by H&E staining based analysis; format: organism-based; conditions: in vivo, 336 h, time 14 day
MGC-803 [16] = assay: Antitumor activity against human MGC-803 cells xenografted in BALB/C mouse assessed as tumor growth inhibition at 35 mg/kg, ip administered once a day for 17 days relative to control; format: functional; conditions: MGC-803, 408 h, time 17 day, read-out: TGI
[17] = Toxicity in BALB/C mouse xenografted with human MGC-803 cells assessed as decrease in body weight at 35 mg/kg, ip administered once daily for 17 days; format: organism-based; conditions: in vivo, 408 h, time 17 day
SGC-7901 [18] = assay: Antiproliferative activity against human SGC-7901 cells assessed as inhibition of colony formation at >= 16 nM incubated for 1 to 2 weeks by crystal violet staining based analysis; format: functional, cell-based; conditions: time 1-2 weeks
MGC-803 [19] = assay: Antiproliferative activity against human MGC-803 cells assessed as inhibition of colony formation at >= 16 nM incubated for 1 to 2 weeks by crystal violet staining based analysis; format: functional, cell-based; conditions: time 1-2 weeks

With `CC(=O)Oc1ccc2[nH]c3c(c2c1)CCN1C(=O)c2cc(F)ccc2N(c2cccc(F)c2)C31` (stereo not drawn) the inhibition [1] was “Active”, the Activity (MGC-803 [2]) was 1.81% and the Activity (MGC-803 [3]) was 2.64%. For the same compound, the Activity (MGC-803 [4]) was 22.05%, the Activity (MGC-803 [5]) was 7.79% and the Activity (SGC-7901 [6]) was “Active”. The Activity (SGC-7901 [7]) was 36.12%, the Activity (MGC-803 [8]) was 38.93% and the Tmax [9] was 1 h. For the same compound, the Activity [10] was “Non-Toxic”, the Activity [11] was “Non-Toxic” and the Activity [12] was “Non-Toxic”. The Activity [13] was “Non-Toxic”, the Activity [14] was “Non-Toxic” and the Activity [15] was “Non-Toxic”. The inhibition in vivo at 35 mg/kg (MGC-803 [16]) was 36.4% and the Activity [17] was “Non-Toxic”.
In the case of `O=C1c2cc(F)ccc2N(c2cccc(F)c2)C2c3[nH]c4ccc(O)cc4c3CCN12` (stereo not drawn), the Activity (SGC-7901 [18]) is reported as “Active”, the inhibition [1] is reported as “Active” and the Activity (MGC-803 [2]) is reported as 3.48%. For the same compound, the Activity (MGC-803 [3]) was 1.05%, the Activity (MGC-803 [4]) was 6.47% and the Activity (MGC-803 [5]) was 7.46%. The Activity (MGC-803 [19]) was “Active”, the Activity (SGC-7901 [6]) was “Active” and the Activity (SGC-7901 [7]) was 41.06%. For the same compound, the Activity (MGC-803 [8]) was 36.03% and the Tmax [9] was 2.5 h.
